Measurements taken from patent publication US10273240B2, “Cortistatin analogues, syntheses, and uses thereof” (President and Fellows of Harvard College, priority 2015, dated 2019).
Read-outs that look alike come from different tables or passages of the source.

Assays:
[1] = molecular target: T1, GSG2 in MOLM-14 cell lysate (Homo sapiens, UniProt Q8TF76); assay: Native kinase capture immunoblot, GSG2; assay type: binding
T1 construct: endogenous in cells; host or cells: MOLM-14 cell lysate
Method: (§1) Native Kinase Capture Immunoblot and Native Kinome-Wide Profiling. […] Experiment was performed twice with one immunoblot shown.

[2] = system: TF-1; assay: Cell growth assay, TF-1; assay type: cell-based; conditions: Homo sapiens, TF-1, 240 h; CA, after 10 days; read-out: Mean GI50 (nM), TF-1
Method: (§2) Cell Culture. All media was supplemented with 100 U/mL penicillin and 100 μg/mL streptomycin. Human cancer cell lines were grown in the following media: MV4; 11, RS4; 11, K562, HEL, MOLM-14, MEG-01 in RPMI-1640, 10% FBS; SET-2 in RPMI-1640, 20% FBS; UKE-1 in RPMI-1640, 10% FBS, 10% horse serum and 1 μM hydrocortisone; SKNO-1 and TF-1 in RPMI-1640, 10% FBS, and 10 or 2 ng/mL GM-CSF, respectively; HaCaT in DMEM, 10% FBS; and HCT116 in McCoy's 5 A, 10% FBS (proliferation assay) or DMEM, 10% FBS (gene expression study). HepG2, MV4;11, RS4;11, MEG-01, TF-1, HCT116 and K562 were from ATCC. SKNO-1 was from DSMZ. HEL, UKE-1, and SET-2 were provided by Ross L. Levine and HaCaT, MV4;11-mCLP, and MOLM-14 by Van Wilson, Andrew L. Kung, and Scott A. Armstrong, respectively. MOLM-14 cells were authenticated by STR profiling and flow cytometry and all cell lines were routinely tested and found to be negative for mycoplasma.

[3] = system: MEG-01; assay: Cell growth assay, MEG-01; assay type: cell-based; conditions: Homo sapiens, MEG-01, 240 h; CA, after 10 days; read-out: Mean GI50 (nM), MEG-01
Method: as §2

[4] = system: Smad2 T220 and Smad3 T179 phosphorylation; assay: TGF-β-stimulated Smad2 T220 and Smad3 T179 phosphorylation immunoblot; assay type: cell-based, human; conditions: HaCaT cells
Method: Kinase Assays. Data was quantified with ImageJ and plotted and fitted with GraphPad Prism 6.0. For STAT1 transactivation domain (TAD), 750 ng of GST-STAT1 TAD (residues 639-750) was incubated with ˜50 ng recombinant CDK8 module at 30° C. for 8 min in kinase buffer (25 mM Tris pH 8, 2 mM DTT, 100 μM cold ATP, 100 mM KCl, 10 mM MgCl2 and 2.5 μCi [γ-^32P] ATP (Perkin Elmer) per reaction). […] 12% SDS-PAGE gels were subsequently silver stained, exposed for 18 h on a Phosphor Screen and imaged (Typhoon 9400, GE Life Sciences). For pol II CTD, 400 ng of GST-CTD (murine sequence) was incubated with ˜40 ng recombinant CDK8 module, 25 ng TFIIH, or 40 ng P-TEFb at 30° C. for 60 min in kinase buffer. Kinase amounts were chosen to give similar total pol II CTD signal. 9% SDS-PAGE gels were silver stained and exposed as above. In vitro FLAG-CDK8 kinase assays used ˜40 ng kinase and 500 ng GST-CTD. For STAT1 or Smad2/3, cells were treated with compound for 1 h followed by IFN-γ or TGF-β1 for 1 h, then washed twice with cold PBS, and lysed (RIPA buffer with inhibitors R0278, P8340, P0044, P5762 Sigma-Aldrich). Standard immunoblotting was then performed with one immunoblot shown. All experiments were performed twice.

[5] = molecular target: T2, CDK13 in MOLM-14 cell lysate (Homo sapiens, UniProt Q14004); assay: Native kinase capture immunoblot, CDK13; assay type: binding
T2 construct: endogenous in cells; host or cells: MOLM-14 cell lysate
Method: as §1

[6] = system: MOLM-14; assay: Cell growth assay, MOLM-14; assay type: cell-based; conditions: Homo sapiens
Method: All media was supplemented with 100 U/mL penicillin and 100 μg/mL streptomycin. Human cancer cell lines were grown in the following media: MV4; 11, K562, MOLM-14 in RPMI-1640, 10% FBS; SKNO-1 in RPMI-1640, 10% FBS, and 10 ng/mL GM-CSF; MV4;11 and K562 were from ATCC. SKNO-1 was from DSMZ.
as §2

T1 sequence (Q8TF76 whole entry): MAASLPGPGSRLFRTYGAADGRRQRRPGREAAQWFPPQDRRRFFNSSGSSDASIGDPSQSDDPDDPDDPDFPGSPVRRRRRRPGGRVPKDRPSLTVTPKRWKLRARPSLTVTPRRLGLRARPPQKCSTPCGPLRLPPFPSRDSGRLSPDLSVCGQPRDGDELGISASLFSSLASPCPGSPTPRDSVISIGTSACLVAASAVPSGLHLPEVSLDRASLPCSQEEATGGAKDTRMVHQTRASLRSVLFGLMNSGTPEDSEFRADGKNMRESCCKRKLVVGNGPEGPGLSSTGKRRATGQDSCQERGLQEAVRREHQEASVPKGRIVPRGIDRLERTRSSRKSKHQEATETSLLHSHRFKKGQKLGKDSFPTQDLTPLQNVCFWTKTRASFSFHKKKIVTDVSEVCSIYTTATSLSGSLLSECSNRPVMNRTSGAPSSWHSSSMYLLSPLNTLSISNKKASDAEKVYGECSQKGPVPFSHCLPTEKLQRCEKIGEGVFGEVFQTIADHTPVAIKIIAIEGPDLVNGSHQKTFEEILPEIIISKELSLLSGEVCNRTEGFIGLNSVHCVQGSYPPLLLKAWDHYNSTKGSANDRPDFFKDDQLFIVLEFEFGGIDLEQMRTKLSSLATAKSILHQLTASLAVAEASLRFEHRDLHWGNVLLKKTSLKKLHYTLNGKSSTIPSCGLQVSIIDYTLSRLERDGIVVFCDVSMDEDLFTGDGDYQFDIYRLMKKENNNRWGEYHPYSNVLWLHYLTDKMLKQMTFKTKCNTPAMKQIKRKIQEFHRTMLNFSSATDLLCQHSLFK
T2 sequence (Q14004 whole entry): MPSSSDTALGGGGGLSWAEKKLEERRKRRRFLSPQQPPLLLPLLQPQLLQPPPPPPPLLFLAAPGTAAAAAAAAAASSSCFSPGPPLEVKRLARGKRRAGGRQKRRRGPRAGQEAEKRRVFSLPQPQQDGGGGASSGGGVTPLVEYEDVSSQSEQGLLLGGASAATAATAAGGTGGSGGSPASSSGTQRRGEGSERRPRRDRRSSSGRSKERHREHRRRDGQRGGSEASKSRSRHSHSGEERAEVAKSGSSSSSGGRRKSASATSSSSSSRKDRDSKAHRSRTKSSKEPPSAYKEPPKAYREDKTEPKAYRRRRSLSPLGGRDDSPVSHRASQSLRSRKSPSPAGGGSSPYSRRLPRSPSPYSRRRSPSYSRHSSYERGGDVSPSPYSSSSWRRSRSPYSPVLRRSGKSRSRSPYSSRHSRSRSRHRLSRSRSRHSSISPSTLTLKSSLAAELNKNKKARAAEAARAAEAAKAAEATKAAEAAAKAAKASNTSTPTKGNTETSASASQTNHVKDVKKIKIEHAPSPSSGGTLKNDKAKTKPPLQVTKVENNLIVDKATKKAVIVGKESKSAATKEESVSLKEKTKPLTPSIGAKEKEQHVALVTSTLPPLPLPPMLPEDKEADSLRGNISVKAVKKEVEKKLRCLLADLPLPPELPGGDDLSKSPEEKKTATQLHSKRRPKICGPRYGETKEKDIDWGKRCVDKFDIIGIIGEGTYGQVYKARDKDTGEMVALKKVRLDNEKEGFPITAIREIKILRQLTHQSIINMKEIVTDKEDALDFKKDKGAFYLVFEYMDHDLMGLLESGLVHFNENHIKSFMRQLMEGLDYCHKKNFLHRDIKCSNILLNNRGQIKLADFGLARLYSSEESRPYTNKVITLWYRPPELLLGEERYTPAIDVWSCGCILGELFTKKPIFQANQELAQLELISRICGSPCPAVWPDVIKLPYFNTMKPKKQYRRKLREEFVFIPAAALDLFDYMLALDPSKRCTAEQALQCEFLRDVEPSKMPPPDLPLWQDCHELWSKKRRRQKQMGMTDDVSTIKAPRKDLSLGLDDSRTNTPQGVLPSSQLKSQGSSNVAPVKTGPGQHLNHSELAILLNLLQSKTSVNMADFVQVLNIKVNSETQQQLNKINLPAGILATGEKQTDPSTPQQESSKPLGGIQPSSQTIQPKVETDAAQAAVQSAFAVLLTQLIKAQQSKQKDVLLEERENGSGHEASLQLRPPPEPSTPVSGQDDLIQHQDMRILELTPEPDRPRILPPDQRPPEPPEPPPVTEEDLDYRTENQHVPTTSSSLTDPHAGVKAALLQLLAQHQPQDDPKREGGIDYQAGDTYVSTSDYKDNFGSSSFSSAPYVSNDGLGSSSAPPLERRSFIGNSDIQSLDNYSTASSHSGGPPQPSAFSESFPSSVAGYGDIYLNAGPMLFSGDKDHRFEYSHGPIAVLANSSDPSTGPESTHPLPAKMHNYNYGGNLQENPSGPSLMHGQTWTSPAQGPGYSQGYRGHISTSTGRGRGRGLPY
T2 sequence (O75909 whole entry partner): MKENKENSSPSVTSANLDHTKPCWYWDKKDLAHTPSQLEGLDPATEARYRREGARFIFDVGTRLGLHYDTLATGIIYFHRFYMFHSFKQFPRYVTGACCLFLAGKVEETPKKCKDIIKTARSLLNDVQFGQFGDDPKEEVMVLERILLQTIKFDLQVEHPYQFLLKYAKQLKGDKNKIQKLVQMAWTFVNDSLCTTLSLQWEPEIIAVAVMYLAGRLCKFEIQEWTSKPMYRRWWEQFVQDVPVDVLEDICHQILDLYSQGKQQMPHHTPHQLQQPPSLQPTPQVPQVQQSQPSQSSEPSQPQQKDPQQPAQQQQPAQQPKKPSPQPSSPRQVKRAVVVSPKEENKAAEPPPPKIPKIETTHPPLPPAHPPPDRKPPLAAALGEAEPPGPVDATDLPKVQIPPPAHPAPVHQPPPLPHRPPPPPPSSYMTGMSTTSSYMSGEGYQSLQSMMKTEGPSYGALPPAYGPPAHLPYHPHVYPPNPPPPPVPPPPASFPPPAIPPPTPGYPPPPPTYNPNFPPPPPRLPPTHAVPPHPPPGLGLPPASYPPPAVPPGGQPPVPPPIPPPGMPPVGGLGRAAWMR

In the case of `CN(C)[C@H]1C[C@@]23CC[C@@]4(O2)C(=CC[C@@]2(C)[C@@H](c5ccc6ccncc6c5)CC[C@H]24)C=C3[C@@H](O)[C@@H]1O` [CA, cortistatin A], the “binding of GSG2 (no binding at up to)” value [1] is reported as greater than 2500 nM, the GI50 [2] is reported as 350 nM and the GI50 [3] is reported as 9 nM. For the same compound, the “inhibition of Smad2 T220 and Smad3 T179 phosphorylation” value [4] was “dose-dependently inhibited”, the “binding of CDK13 (no binding at up to)” value [5] was greater than 2500 nM and the GI50 ([6]; MOLM-14, 240 h, CA, after 10 days, read-out: Mean GI50 (nM), MOLM-14) was 5 nM. The GI50 ([6]; MOLM-14, 240 h, read-out: MOLM14 GI50 day 10) was 5 nM and the GI50 ([6]; MOLM-14, Table 5, read-out: GI50 (nM), MOLM-14) was 5 nM.
